Where two headings read alike, the source gives them in different places.
What was measured:
[1] = tested on: breast cancer MCF-7 cells; assay: Intrinsic activity of prodrug and hydroxylated metabolite in breast cancer MCF-7 cells; type: cell-based; settings: Homo sapiens, MCF7; prodrug versus hydroxylated metabolite
K562 = settings: antitumour activity; cited from earlier work
[2] = MCF-7 cell line (non-induced) cytotoxicity assay (MTT); type: cell-based; settings: human, MCF-7 breast tumour cells, non-induced (no TCDD), non-induced MCF-7 cells
MCF-10A (Normal Breast) = assay: MCF-10A normal cell line cytotoxicity assay; type: cell-based, human; settings: Homo sapiens, MCF-10A, read-out: IC50 against the normal cell line
MDA-468 (Breast Tumor) = assay: MDA-468 tumour cell line cytotoxicity assay; settings: for Tumor Selectivity Differential Factor: IC50 MCF-10A / IC50 MDA-468, fold more toxic to cancer cells than to normal cells
Method: MDA-468 Tumour Cell Line Versus MCF-10A Normal Cell Line Assay
This cell culture based assay is performed using the two cell lines MDA-468 and MCF-10A. The MDA-468 cell line is an advanced breast cancer cell line, whilst the MCF-10A cell line is a normal breast cell line.
The tumour selectivity differential factor(TSDF) is calculated by dividing the IC50 obtained from the MCF-10A data by the IC50 obtained from the MDA-468 data.

TCDD-induced MCF-7 cells = assay: TCDD-induced MCF-7 cell line cytotoxicity assay (MTT); settings: for Tumor Selectivity Differential Factor: IC50 MCF-7 cells / IC50 TCDD-induced MCF-7 cells, fold more toxic to "tumour" cells than to "normal" cells; for IC50: read-out: Cytotoxicity TCDD-induced MCF-7 Cells IC50, 10 nM TCDD for 24 hours, then 96 hours with compound, MTT
Method: TCDD-Induced MCF-7 Cell Line Versus MCF-7 Cell Line Cytotoxicity Assay
1×10^3 cells were plated out in 100 μl medium per well of 96-well flat-bottomed plates (Fisher). […] The medium was then carefully aspirated and 100 μl fresh medium added. […] 50 μl MTT (Thiazol blue, Sigma) at 2 mg/ml in Dulbecco's phosphate buffered saline-A, was then added to each well for 3 hours: All medium was aspirated, then the formazan product generated by viable cells was solubilized with 150 μl DMSO. Plates were vortexed and the absorbance at 540 nm determined using a plate reader. […] All determinations were carried out in at least triplicate.

[3] = MCF-10A normal cell line cytotoxicity assay; type: cell-based, human; settings: human, MCF-10A normal breast cells; without TCDD
[4] = read-out: Cytotoxicity MDA-468 (Breast Tumor) IC50, without TCDD

SMILES | IC50 at 96 h [2] [nM] | Tumor Selectivity Differential Factor (MDA-468 (Breast Tumor)) | Tumor Selectivity Differential Factor (TCDD-induced MCF-7 cells) | IC50 (TCDD-induced MCF-7 cells) [nM] | other results
COc1cc(OC)cc(C(=O)/C=C/c2ccc(OC)c(O)c2)c1 [(E)-1-(3-Hydroxy-4-methoxyphenyl)-3-(3,5-dimethoxyphenyl) prop-1-en-3-one] |  |  |  |  | IC50 [1]: 0.65 nM
COc1ccc(/C=C/C(=O)c2cc(OC)cc(OC)c2)cc1 [(E)-1-(4-methoxyphenyl)-3-(3,5-dimethoxyphenyl)prop-1-en-3-one] |  |  |  |  | IC50 [1]: 690 nM
CC(=O)/C=C/c1ccc(O)cc1 [(E)-1-(4′-hydroxyphenyl)but-1-en-3-one] |  |  |  |  | IC50 (K562): 60000 nM
COc1cc(C(=O)/C=C/c2ccc3c(c2)OCO3)cc(OC)c1OC [DMU-135, (E)-1-(3,4-Methylenedioxyphenyl)-3-(3,4,5-trimethoxyphenyl)prop-1-en-3-one] | 920 | 120 | 65 |  | IC50 (MCF-10A (Normal Breast)): 2300 nM; melting point: 135 °C; IC50 (MDA-468 (Breast Tumor); read-out: IC50 against the advanced tumour cell line, MDA-468, FIG. 2): 20 nM
COc1cc(OC)cc(C(=O)/C=C/c2ccc3c(c2)OCO3)c1 [DMU-403, (E)-1-(3,4-methylenedioxyphenyl)-3-(3,5-dimethoxyphenyl)prop-1-en-3-one] | 3500 |  | 6 | 570 | 
COc1ccc(C(=O)/C=C/c2ccc3c(c2)OCO3)c(OC)c1 [DMU-407, (E)-1-(3,4-methylenedioxyphenyl)-3-(2,4-dimethoxyphenyl)prop-1-en-3-one] | 7000 |  | 3 | 2700 | melting point: 137 °C
COc1ccc(C(=O)/C=C/c2ccc3c(c2)OCO3)c(OC)c1OC [DMU-419, (E)-1-(3,4-methylenedioxyphenyl)-3-(2,3,4-trimethoxyphenyl)prop-1-en-3-one] | 2800 |  | 3 | 840 | 
COc1ccc(OC)c(C(=O)/C=C/c2ccc3c(c2)OCO3)c1 [DMU-423, (E)-1-(3,4-methylenedioxyphenyl)-3-(2,5-dimethoxyphenyl)prop-1-en-3-one] | 3500 |  | 13 | 260 | melting point: 101 °C
COc1cccc2c1C(=O)c1c(O)c3c(c(O)c1C2=O)C[C@@](O)(C(=O)CO)C[C@@H]3O[C@H]1C[C@H](N)[C@H](O)[C@H](C)O1 [Doxorubicin, doxorubicin] |  | 0.1 |  |  | IC50 at 96 h [3]: 0.3 nM; fold more toxic to normal cells than to cancer cells (MDA-468 (Breast Tumor); MCF-10A versus MDA-468): 10 fold; IC50 (MDA-468 (Breast Tumor); [4]): 3 nM
CN(Cc1cnc2nc(N)nc(N)c2n1)c1ccc(C(=O)N[C@@H](CCC(=O)O)C(=O)O)cc1 [Methotrexate, methotrexate] |  | 1.5 |  |  | IC50 at 96 h [3]: 60 nM; IC50 (MDA-468 (Breast Tumor); [4]): 40 nM
CC/C(=C(\c1ccccc1)c1ccc(OCCN(C)C)cc1)c1ccccc1 [Tamoxifen, tamoxifen] |  | 1.6 |  |  | IC50 at 96 h [3]: 6300 nM; IC50 (MDA-468 (Breast Tumor); [4]): 4000 nM

Source: US7598294B2, “3,4-methylenedioxy-substituted chalcones as therapeutic agents” (Spear Therapeutics Limited, priority 2001, dated 2009)
